Legend:
[1] = Thermogravimetry (TGA) mass loss; type: physicochemical; conditions: heating rate 10 Kmin^−1, open platinum crucibles, nitrogen purge
Protocol: The TGA measurements were carried out using TGA7 and Pyris-1-TGA thermobalances from Perkin-Elmer using a heating rate of 10 Kmin^−1. The measurements were carried out in open platinum crucibles, the purge gas used was nitrogen. There was no sample preparation.

[2] = Thermodynamic and storage stability of the solid form; type: physicochemical; conditions: also after processing to suspensions

Structure (SMILES)	Mass loss [1]	Stability of the solid form (thermodynamic / storage) ([2]; listed as mesomorphous form)	Stability of the solid form (thermodynamic / storage) [2]
COC(=O)Nc1c(N)nc(-c2nn(Cc3ccccc3F)c3ncccc23)nc1N [modification IV, methyl {4,6-diamino-2-[1-(2-fluorobenzyl)-1H-pyrazolo[3,4-b]pyridin-3-yl]pyrimidin-5-yl}carbamate]	<1 % by weight		
COC(=O)Nc1c(N)nc(-c2nn(Cc3ccccc3F)c3ncccc23)nc1N [amorphous, methyl {4,6-diamino-2-[1-(2-fluorobenzyl)-1H-pyrazolo[3,4-b]pyridin-3-yl]pyrimidin-5-yl}carbamate]	about 10 % by weight		
COC(=O)Nc1c(N)nc(-c2nn(Cc3ccccc3F)c3ncccc23)nc1N [modification I, methyl {4,6-diamino-2-[1-(2-fluorobenzyl)-1H-pyrazolo[3,4-b]pyridin-3-yl]pyrimidin-5-yl}-carbamate]	<0.5 % by weight		thermodynamically stable and storage-stable even after processing to suspensions

Further lines, with some results ahead:

Mass loss [1]	Stability of the solid form (thermodynamic / storage) ([2]; listed as mesomorphous form)	Structure (SMILES)	Stability of the solid form (thermodynamic / storage) [2]
<0.5 % by weight		COC(=O)Nc1c(N)nc(-c2nn(Cc3ccccc3F)c3ncccc23)nc1N [modification II, methyl {4,6-diamino-2-[1-(2-fluorobenzyl)-1H-pyrazolo[3,4-b]pyridin-3-yl]pyrimidin-5-yl}carbamate]	
<0.5 % by weight		COC(=O)Nc1c(N)nc(-c2nn(Cc3ccccc3F)c3ncccc23)nc1N [modification III, methyl {4,6-diamino-2-[1-(2-fluorobenzyl)-1H-pyrazolo[3,4-b]pyridin-3-yl]pyrimidin-5-yl}carbamate]	
about 8 % by weight	metastable	COC(=O)Nc1c(N)nc(-c2nn(Cc3ccccc3F)c3ncccc23)nc1N [mesomorphous, Methyl {4,6-diamino-2-[1-(2-fluorobenzyl)-1H-pyrazolo[3,4-b]pyridin-3-yl]pyrimidin-5-yl}-carbamate, reference compound]	
